What was measured:
mu opioid receptor = molecular target: T1, mu opioid receptor (Rattus norvegicus, UniProt P33535); test: Rat Brain Mu Opioid Receptor Binding Assay; conditions: rat forebrain membrane preparation; [3H]DAMGO, 25° C., 2.5 h
T1 construct: Following incubation with the mu selective peptide ligand, ˜0.8 nM [^3H]DAMGO; from tissue; host or cells: rat forebrain homogenate (male Wistar rats), particulate membrane preparation

delta opioid receptor = molecular target: T2, delta opioid receptor (Rattus norvegicus, UniProt P33533); test: Rat Brain Delta Opioid Receptor Binding Assay; conditions: rat forebrain membrane preparation; [3H]DPDPE or [3H]naltrindole, 25° C., 2.5 h
T2 construct: from tissue; host or cells: rat forebrain homogenate (male Wistar rats), particulate membrane preparation
T2 sequence (P33533 whole entry): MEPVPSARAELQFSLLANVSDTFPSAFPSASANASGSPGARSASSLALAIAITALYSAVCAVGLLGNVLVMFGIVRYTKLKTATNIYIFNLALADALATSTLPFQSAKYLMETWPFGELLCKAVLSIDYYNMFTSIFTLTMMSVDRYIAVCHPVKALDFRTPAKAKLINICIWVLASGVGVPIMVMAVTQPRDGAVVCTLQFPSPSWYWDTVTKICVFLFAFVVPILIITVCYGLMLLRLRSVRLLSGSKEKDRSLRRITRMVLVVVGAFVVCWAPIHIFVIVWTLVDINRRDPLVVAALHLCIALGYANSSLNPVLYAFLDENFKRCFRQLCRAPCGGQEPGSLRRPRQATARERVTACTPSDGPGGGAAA

T1 sequence (P33535 whole entry): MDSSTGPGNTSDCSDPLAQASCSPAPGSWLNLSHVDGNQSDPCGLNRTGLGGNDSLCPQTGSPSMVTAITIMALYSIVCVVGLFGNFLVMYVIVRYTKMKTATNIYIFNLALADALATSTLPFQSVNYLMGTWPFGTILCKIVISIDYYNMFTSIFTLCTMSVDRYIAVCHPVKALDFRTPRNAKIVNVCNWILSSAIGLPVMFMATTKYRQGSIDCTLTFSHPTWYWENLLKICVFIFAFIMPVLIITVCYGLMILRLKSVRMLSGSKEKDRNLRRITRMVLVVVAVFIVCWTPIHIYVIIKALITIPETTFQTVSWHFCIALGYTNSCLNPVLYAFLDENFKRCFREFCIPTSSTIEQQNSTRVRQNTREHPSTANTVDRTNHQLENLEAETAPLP

SMILES	Ki (mu opioid receptor)	Ki (delta opioid receptor)
c1csc(CN2[C@@H]3CC[C@H]2CC(N2c4ccccc4Sc4cc(-c5ccncc5)ccc42)C3)c1 (mixture of isomers) [Compound 12i, 3-Pyridin-4-yl-10-(8-thiophen-2-ylmethyl-8-aza-bicyclo[3.2.1]oct-3-yl)-10H-phenothiazine]	1450 nM	491 nM
c1ccc(CCN2[C@@H]3CC[C@H]2C[C@@H](N2c4ccccc4Oc4cc(-c5cccnc5)ccc42)C3)cc1 [Compound 6j, Endo-10-(8-Phenethyl-8-aza-bicyclo[3.2.1]oct-3-yl)-3-pyridin-3-yl-10H-phenoxazine]	–	3260 nM
c1ccc(CN2[C@@H]3CC[C@H]2C[C@@H](N2c4ccccc4Oc4cc(-c5ccncc5)ccc42)C3)nc1 [Compound 4k, Endo-3-Pyridin-4-yl-10-(8-pyridin-2-ylmethyl-8-aza-bicyclo[3.2.1]oct-3-yl)-10H-phenoxazine]	–	445 nM
c1ccc(CCN2[C@@H]3CC[C@H]2C[C@@H](N2c4ccccc4Oc4cc(-c5ccncc5)ccc42)C3)cc1 [Compound 3k, Endo-10-(8-Phenethyl-8-aza-bicyclo[3.2.1]oct-3-yl)-3-pyridin-4-yl-10H-phenoxazine]	–	3390 nM
c1ccc2c(c1)Oc1cc(-c3ccncc3)ccc1N2[C@@H]1C[C@H]2CC[C@@H](C1)N2 [Compound 2m, Exo-10-(8-Aza-bicyclo[3.2.1]oct-3-yl)-3-pyridin-4-yl-10H-phenoxazine]	–	634 nM
c1ccc(CN2[C@@H]3CC[C@H]2C[C@H](N2c4ccccc4Oc4cc(-c5ccncc5)ccc42)C3)nc1 [Compound 4m, Exo-3-Pyridin-4-yl-10-(8-pyridin-2-ylmethyl-8-aza-bicyclo[3.2.1]oct-3-yl)-10H-phenoxazine]	–	869 nM
N#Cc1ccc2c(c1)Oc1ccccc1N2[C@H]1C[C@H]2CC[C@@H](C1)N2 [Compound 8b, Endo-10-(8-Aza-bicyclo[3.2.1]oct-3-yl)-10H-phenoxazine-3-carbonitrile]	> 10000 nM	1900 nM
CC(C)=CCN1[C@@H]2CC[C@H]1CC(N1c3ccccc3Sc3cc(-c4cccnc4)ccc31)C2 (mixture of isomers) [Compound 8i, 10-[8-(3-Methyl-but-2-enyl)-8-aza-bicyclo[3.2.1]oct-3-yl]-3-pyridin-3-yl-10H-phenothiazine]	889 nM	444 nM
COc1cccc2c1Oc1cc(-c3ccncc3)ccc1N2[C@H]1C[C@H]2CC[C@@H](C1)N2CCc1ccccc1 [Compound 13v, Endo-6-Methoxy-10-(8-phenethyl-8-aza-bicyclo[3.2.1]oct-3-yl)-3-pyridin-4-yl-10H-phenoxazine]	–	> 10000 nM
c1ccc(CCN2[C@@H]3CC[C@H]2C[C@H](N2c4ccccc4Oc4cc(-c5ccncc5)ccc42)C3)cc1 [Compound 3m, Exo-10-(8-Phenethyl-8-aza-bicyclo[3.2.1]oct-3-yl)-3-pyridin-4-yl-10H-phenoxazine]	–	480 nM
CC(=O)Nc1ccccc1-c1ccc2c(c1)Sc1ccccc1N2C1C[C@H]2CC[C@@H](C1)N2Cc1ncc[nH]1 (mixture of isomers) [Compound 15i, N-(2-{10-[8-(1H-Imidazol-2-ylmethyl)-8-aza-bicyclo[3.2.1]oct-3-yl]-10H-phenothiazin-3-yl}-phenyl)-acetamide]	169 nM	630 nM
c1ccc2c(c1)Oc1cc(-c3ccncc3)ccc1N2[C@@H]1C[C@H]2CC[C@@H](C1)N2Cc1ccoc1 [Compound 5m, Exo-10-(8-Furan-3-ylmethyl-8-aza-bicyclo[3.2.1]oct-3-yl)-3-pyridin-4-yl-10H-phenoxazine]	–	1280 nM
c1ccc(CN2[C@@H]3CC[C@H]2C[C@H](N2c4ccccc4Oc4cc(-c5cccnc5)ccc42)C3)nc1 [Compound 5l, Exo-3-Pyridin-3-yl-10-(8-pyridin-2-ylmethyl-8-aza-bicyclo[3.2.1]oct-3-yl)-10H-phenoxazine]	–	539 nM
c1csc(CN2[C@@H]3CC[C@H]2C[C@@H](N2c4ccccc4Oc4cc(-c5ccncc5)ccc42)C3)c1 [Compound 6k, Endo-3-Pyridin-4-yl-10-(8-thiophen-2-ylmethyl-8-aza-bicyclo[3.2.1]oct-3-yl)-10H-phenoxazine]	–	14200 nM
c1cncc(-c2ccc3c(c2)Oc2ccccc2N3[C@H]2C[C@H]3CC[C@@H](C2)N3Cc2cccs2)c1 [Compound 9j, Endo-3-Pyridin-3-yl-10-(8-thiophen-2-ylmethyl-8-aza-bicyclo[3.2.1]oct-3-yl)-10H-phenoxazine]	–	11900 nM
c1ccc2c(c1)Oc1cc(-c3ccncc3)ccc1N2[C@H]1C[C@H]2CC[C@@H](C1)N2Cc1ccoc1 [Compound 5k, Endo-10-(8-Furan-3-ylmethyl-8-aza-bicyclo[3.2.1]oct-3-yl)-3-pyridin-4-yl-10H-phenoxazine]	–	247 nM
c1ccc2c(c1)Oc1cc(-c3ccncc3)ccc1N2[C@H]1C[C@H]2CC[C@@H](C1)N2 [Compound 2k, Endo-10-(8-Aza-bicyclo[3.2.1]oct-3-yl)-3-pyridin-4-yl-10H-phenoxazine]	–	696 nM

SMILES	Ki (mu opioid receptor)	Ki (delta opioid receptor)
CC(=O)Nc1ccccc1-c1ccc2c(c1)Oc1ccccc1N2[C@H]1C[C@H]2CC[C@@H](C1)N2CCc1ccccc1 [Compound 3x, Endo-N-{2-[10-(8-Phenethyl-8-aza-bicyclo[3.2.1]oct-3-yl)-10H-phenoxazin-3-yl]-phenyl}-acetamide]	–	1590 nM
C=CCN1[C@@H]2CC[C@H]1CC(N1c3ccccc3Sc3cc(-c4ccccc4NC(C)=O)ccc31)C2 (mixture of isomers) [Compound 13i, N-{2-[10-(8-Allyl-8-aza-bicyclo[3.2.1]oct-3-yl)-10H-phenothiazin-3-yl]-phenyl}-acetamide]	3740 nM	552 nM
CCN(CC)C(=O)c1ccc2c(c1)Oc1ccccc1N2[C@@H]1C[C@H]2CC[C@@H](C1)N2CCc1ccccc1 [Compound 3u, Exo-10-(8-Phenethyl-8-aza-bicyclo[3.2.1]oct-3-yl)-10H-phenoxazine-3-carboxylic acid diethylamide]	–	1360 nM
CC(=O)Nc1ccccc1-c1ccc2c(c1)Sc1ccccc1N2C1C[C@H]2CC[C@@H](C1)N2CCc1ccccc1 (mixture of isomers) [Compound 14i, N-{2-[10-(8-Phenethyl-8-aza-bicyclo[3.2.1]oct-3-yl)-10H-phenothiazin-3-yl]-phenyl}-acetamide]	599 nM	1600 nM
CCN(CC)C(=O)c1ccc2c(c1)Oc1ccccc1N2[C@H]1C[C@H]2CC[C@@H](C1)N2CCc1ccccc1 [Compound 6t, Endo-10-(8-Phenethyl-8-aza-bicyclo[3.2.1]oct-3-yl)-10H-phenoxazine-3-carboxylic acid diethylamide]	–	231 nM
c1ccc(CCN2[C@@H]3CC[C@H]2CC(N2c4ccccc4Oc4cc(-c5nnn[nH]5)ccc42)C3)cc1 (stereo partly drawn) [Compound 7b, Endo-10-(8-Phenethyl-8-aza-bicyclo[3.2.1]oct-3-yl)-3-(1H-tetrazol-5-yl)-10H-phenoxazine]	288 nM	5480 nM
CN1C2CCC1CC(N1c3ccccc3Oc3cc(-c4noc(=O)[nH]4)ccc31)C2 (stereo not drawn) [Compound 2h, 3-[10-(8-Methyl-8-aza-bicyclo[3.2.1]oct-3-yl)-10H-phenoxazin-3-yl]-4H-[1,2,4]oxadiazol-5-one]	2890 nM	598 nM
CC(=O)Nc1ccccc1-c1ccc2c(c1)Oc1ccccc1N2[C@H]1C[C@H]2CC[C@@H](C1)N2Cc1cccs1 [Compound 4x, Endo-N-{2-[10-(8-Thiophen-2-ylmethyl-8-aza-bicyclo[3.2.1]oct-3-yl)-10H-phenoxazin-3-yl]-phenyl}-acetamide]	–	161 nM
c1cncc(-c2ccc3c(c2)Oc2ccccc2N3[C@H]2C[C@H]3CC[C@@H](C2)N3)c1 [Compound 5j, Endo-10-(8-Aza-bicyclo[3.2.1]oct-3-yl)-3-pyridin-3-yl-10H-phenoxazine]	–	409 nM
Brc1ccc2c(c1)Sc1ccccc1N2C1C[C@H]2CC[C@@H](C1)N2 (mixture of isomers) [Compound 4i, 10-(8-Aza-bicyclo[3.2.1]oct-3-yl)-3-bromo-10H-phenothiazine]	6610 nM	881 nM
c1ccc(CCN2[C@@H]3CC[C@H]2C[C@H](N2c4ccccc4Oc4cc(-c5cccnc5)ccc42)C3)cc1 [Compound 4l, Exo-10-(8-Phenethyl-8-aza-bicyclo[3.2.1]oct-3-yl)-3-pyridin-3-yl-10H-phenoxazine]	–	425 nM
c1ccc(CN2[C@@H]3CC[C@H]2CC(N2c4ccccc4Sc4cc(-c5cccnc5)ccc42)C3)nc1 (mixture of isomers) [Compound 9i, 3-Pyridin-3-yl-10-(8-pyridin-2-ylmethyl-8-aza-bicyclo[3.2.1]oct-3-yl)-10H-phenothiazine]	538 nM	649 nM
CN(CCc1ccccc1)C(=O)c1ccc2c(c1)Oc1ccccc1N2C1CC2CCC(C1)N2C (stereo not drawn) [Compound 6a, 10-(8-Methyl-8-aza-bicyclo[3.2.1]oct-3-yl)-10H-phenoxazine-3-carboxylic acid methyl-phenethyl-amide]	819 nM	575 nM
N#Cc1ccc2c(c1)Sc1ccccc1N2C1C[C@H]2CC[C@@H](C1)N2 (mixture of isomers) [Compound 1aa, 10-(8-Aza-bicyclo[3.2.1]oct-3-yl)-10H-phenothiazine-3-carbonitrile]	–	931 nM
c1ccc(CN2[C@@H]3CC[C@H]2C[C@@H](N2c4ccccc4Oc4cc(-c5cccnc5)ccc42)C3)nc1 [Compound 7j, Endo-3-Pyridin-3-yl-10-(8-pyridin-2-ylmethyl-8-aza-bicyclo[3.2.1]oct-3-yl)-10H-phenoxazine]	–	104 nM
Oc1cccc2c1Oc1cc(-c3ccncc3)ccc1N2[C@H]1C[C@H]2CC[C@@H](C1)N2CCc1ccccc1 [Compound 10v, Endo-10-(8-Phenethyl-8-aza-bicyclo[3.2.1]oct-3-yl)-7-pyridin-4-yl-10H-phenoxazin-4-ol]	–	> 10000 nM
c1cncc(-c2ccc3c(c2)Oc2ccccc2N3[C@@H]2C[C@H]3CC[C@@H](C2)N3)c1 [Compound 3l]	–	729 nM
